Experimental data from US20240109853A1 (Shanghai Yao Yuan Biotechnology Co., Ltd., priority 2020, published 2024).
Read-outs that look alike come from different tables or passages of the source.

What was measured:
[1] = test system: ALPK1-dependent NFκB reporter gene activation in HEK293 cells stably expressing an NF-kB reporter (G9 cells); experiment: NFκB gene reporter alkaline phosphatase assay; assay type: cell-based; conditions: read-out: NFkB assay IC50
Description: In embodiments, a compound of Formula I, or a subembodiment described herein, is an inhibitor of ALPK1 as measured, for example, in an in vitro kinase assay, or an assay designed to measure the activation of downstream targets of ALPK1 pathway activation, for example NFkB transcriptional activation and the secretion of proinflammatory cytokines and chemokines, such as IL-8, which is also referred to as CXCL-8. In general, the computer program XL fit was used for data analysis, including non-linear regression analysis. The half maximal inhibitory concentration (IC50) was used as the measure of a compound's effectiveness in the assays. IC50 values were determined using the following logistic equation Y=min+(max−min)/(1+(X/IC50^−hillslpoe), where Y is the value at the compound concentration, X. The concentration response curve fitting was conducted using GraphPad Prism version 6.00 software.
An alkaline phosphatase reporter assay system was used to measure inhibition of ALPK1-dependent NFκB reporter gene activation. Briefly, HEK293 cells stably expressing an NF-kB reporter (referred to herein as “G9 cells”) were maintained in DMEM as described above. For the assay, cells were seeded into 96-well plates at a density of 10,000 cells/well in Freestyle™ 293 Expression Medium (ThermoFisher), and allowed to attach overnight. Cells were pretreated with serially diluted compounds for 30 min and then stimulated with D-glycero-D-manno-6-fluoro-heptose-1β-S-ADP. […] NFkB gene activation was detected using the chromogenic substrate, para-nitrophenyl phosphate (pNPP) according to the manufacturer's protocols (pNPP Phosphatase Assay, Beyotime Biotechnology).

ALPK1 = ALPK1 (Homo sapiens (Human), UniProt Q96QP1); experiment: ALPK1 in vitro kinase assay (HTRF of TIFA phosphorylation); assay type: biochemical
ALPK1, sequence (Q96QP1 whole entry): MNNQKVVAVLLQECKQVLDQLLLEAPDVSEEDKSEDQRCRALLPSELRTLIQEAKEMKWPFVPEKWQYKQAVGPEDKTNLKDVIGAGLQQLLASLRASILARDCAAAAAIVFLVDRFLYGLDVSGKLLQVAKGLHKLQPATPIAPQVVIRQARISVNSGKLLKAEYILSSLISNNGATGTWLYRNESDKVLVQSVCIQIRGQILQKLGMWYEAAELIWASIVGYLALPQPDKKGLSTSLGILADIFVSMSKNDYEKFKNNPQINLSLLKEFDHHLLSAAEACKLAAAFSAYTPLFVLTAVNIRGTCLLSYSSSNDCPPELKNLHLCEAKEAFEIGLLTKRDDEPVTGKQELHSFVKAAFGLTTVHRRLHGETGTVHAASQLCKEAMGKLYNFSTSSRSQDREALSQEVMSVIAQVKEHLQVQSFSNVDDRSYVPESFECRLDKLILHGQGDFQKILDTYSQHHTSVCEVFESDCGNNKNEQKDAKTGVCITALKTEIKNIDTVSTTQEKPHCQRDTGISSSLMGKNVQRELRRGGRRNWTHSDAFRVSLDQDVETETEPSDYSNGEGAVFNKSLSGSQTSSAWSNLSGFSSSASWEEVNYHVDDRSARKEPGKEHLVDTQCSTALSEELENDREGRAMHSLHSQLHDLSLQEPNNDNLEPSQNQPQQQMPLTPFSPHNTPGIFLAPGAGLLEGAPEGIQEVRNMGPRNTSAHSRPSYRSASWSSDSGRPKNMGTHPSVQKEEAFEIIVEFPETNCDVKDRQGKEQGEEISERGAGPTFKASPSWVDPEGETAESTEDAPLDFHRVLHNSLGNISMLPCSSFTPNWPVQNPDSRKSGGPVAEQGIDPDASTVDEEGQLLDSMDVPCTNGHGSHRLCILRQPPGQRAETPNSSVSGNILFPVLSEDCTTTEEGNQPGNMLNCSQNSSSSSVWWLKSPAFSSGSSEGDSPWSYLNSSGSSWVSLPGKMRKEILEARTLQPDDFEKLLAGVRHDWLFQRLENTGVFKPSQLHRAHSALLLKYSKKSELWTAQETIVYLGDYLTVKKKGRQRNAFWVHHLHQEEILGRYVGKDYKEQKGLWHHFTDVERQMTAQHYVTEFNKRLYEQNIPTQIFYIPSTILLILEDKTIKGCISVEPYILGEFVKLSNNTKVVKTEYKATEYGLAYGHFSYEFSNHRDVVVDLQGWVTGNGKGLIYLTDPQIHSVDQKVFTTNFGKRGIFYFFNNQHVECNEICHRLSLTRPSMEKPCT

SMILES	IC50 ([1]; Homo sapiens, HEK293) [nM]	IC50 (ALPK1) [nM]	IC50 [1] [nM]
[2H]C([2H])(O)CNC(=O)Nc1nc([C@@](C)(C#C)c2ccc(Cl)cc2)cs1 (stereo in doubt) [Example A321, 1-[4-[1-(4-chlorophenyl)-1-methyl-prop-2-ynyl]thiazol-2-yl]-3-(2,2-dideuterio-2-hydroxy-ethyl)urea]	300	28	–
COc1ccc(C(C)(C)c2csc(NC(=O)NC(C)c3ccc(N4CCNCC4)nc3)n2)cc1 (stereo not drawn) [Example A001, 1-(4-(2-(4-methoxyphenyl)propan-2-yl)thiazol-2-yl)-3-(1-(6-(piperazin-1-yl)pyridin-3-yl)ethyl)urea]	670	58	–
COc1ccc(C(C)(C)c2csc(NC(=O)NC(C)c3cc(F)c(N4CCNCC4)cc3F)n2)cc1 (stereo not drawn) [Example A002, 1-(1-(2,5-difluoro-4-(piperazin-1-yl)phenyl)ethyl)-3-(4-(2-(4-methoxyphenyl)propan-2-yl)thiazol-2-yl)urea]	700	63	–
CC(NC(=O)Nc1nc(C(C)(C)c2ccc(Br)cc2)cs1)c1cc(F)c(N2CCNCC2)c(F)c1 (stereo not drawn) [Example A003, 1-(4-(2-(4-bromophenyl)propan-2-yl)thiazol-2-yl)-3-(1-(3,5-difluoro-4-(piperazin-1-yl)phenyl)ethyl)urea]	1200	45	–
CC(C)(c1ccc(Br)cc1)c1csc(NC(=O)NCc2cncnc2)n1 [Example A004, 1-(4-(2-(4-bromophenyl)propan-2-yl)thiazol-2-yl)-3-(pyrimidin-5-ylmethyl)urea]	2030	240	–
CC(C)(c1ccc(Br)cc1)c1csc(NC(=O)NCc2ccc(C(N)=O)cc2)n1 [Example A008, 4-((3-(4-(2-(4-bromophenyl)propan-2-yl)thiazol-2-yl)ureido)methyl)benz-mide]	700	8	–
CC(C)(c1ccc(Br)cc1)c1csc(NC(=O)NCc2ccc(N3CCC(O)C3)cc2)n1 (stereo not drawn) [Example A009, 1-(4-(2-(4-bromophenyl)propan-2-yl)thiazol-2-yl)-3-(4-(3-hydroxypyrrolidin-1-yl)benzyl)urea]	3150	154	–
CC(C)(c1ccc(Br)cc1)c1csc(NC(=O)NCc2ccc(N3CCN(CCO)CC3)nc2)n1 [Example A010, 1-(4-(2-(4-bromophenyl)propan-2-yl)thiazol-2-yl)-3-((6-(4-(2-hydroxyethyl)piperazin-1-yl)pyridin-3-yl)methyl)urea]	3950	200	–
COc1ccc(C(C)(C)c2csc(NC(=O)NCc3ccc(N4CCC(N(C)C)C4)nc3)n2)cc1 (stereo not drawn) [Example A011, 1-((6-(3-(dimethylamino)pyrrolidin-1-yl)pyridin-3-yl)methyl)-3-(4-(2-(4-methoxyphenyl)propan-2-yl)thiazol-2-yl)urea]	1370	49	–
COc1ccc(C(C)(C)c2csc(NC(=O)NCc3cnc(N4CCC(N(C)C)C4)nc3)n2)cc1 (stereo not drawn) [Example A012, 1-((2-(3-(dimethylamino)pyrrolidin-1-yl)pyrimidin-5-yl)methyl)-3-(4-(2-(4-methoxyphenyl)propan-2-yl)thiazol-2-yl)urea]	2210	40	–
COc1ccc(C(C)(C)c2csc(NC(=O)NCCS(C)(=O)=O)n2)cc1 [Example A013, 1-(4-(2-(4-methoxyphenyl)propan-2-yl)thiazol-2-yl)-3-(2-(methylsulfonyl)ethyl)urea]	2970	316	–
COc1ccc(C(C)(C)c2csc(NC(=O)NCc3ccc(NCCO)nc3)n2)cc1 [Example A014, 1-((6-((2-hydroxyethyl)amino)pyri-din-3-yl)methyl)-3-(4-(2-(4-methoxyphenyl)propan-2-yl)thiazol-2-yl)urea]	880	160	–
COc1ccc(C(C)(C)c2csc(NC(=O)NCc3ccc(C(=O)NC4CCN(C)CC4)nc3)n2)cc1 [Example A015, 5-((3-(4-(2-(4-methoxyphenyl)propan-2-yl)thiazol-2-yl)ureido)methyl)-N-(1-methylpiperidin-4-yl)picolinamide]	–	24	880
CN1CCN(Cc2ccc(CNC(=O)Nc3nc(C(C)(C)c4ccc(Br)cc4)cs3)cc2)CC1 [Example A016, 1-(4-(2-(4-bromophenyl)propan-2-yl)thiazol-2-yl)-3-(4-((4-methylpiperazin-1-yl)methyl)benzyl)urea]	2340	27	–
CC(C)(c1ccc(Br)cc1)c1csc(NC(=O)NCc2ccc(F)c(Cl)c2)n1 [Example A017, 1-(4-(2-(4-bromophenyl)propan-2-yl)thiazol-2-yl)-3-(3-chloro-4-fluorobenzyl)urea]	970	204	–
COc1ccc(C(C)(C)c2csc(NC(=O)NCc3ccc(C(=O)NC4CCN(C)CC4)cc3)n2)cc1 [Example A018, 4-((3-(4-(2-(4-methoxyphenyl)propan-2-yl)thiazol-2-yl)ureido)methyl)-N-(1-methylpiperidin-4-yl)benzamide]	1280	29	–
COc1ccc(C(C)(C)c2csc(NC(=O)NCc3ccc(NC4CCN(C)CC4)nc3)n2)cc1 [Example A019, 1-(4-(2-(4-methoxyphenyl)propan-2-yl)thiazol-2-yl)-3-((6-((1-methylpiperidin-4-yl)amino)pyridin-3-yl)methyl)urea]	1290	32	–
CC(C)(c1ccc(Br)cc1)c1csc(NC(=O)NCCF)n1 [Example A020, 1-(4-(2-(4-bromophenyl)propan-2-yl)thiazol-2-yl)-3-(2-fluoroethyl)urea]	6790	144	–
COc1ccc(C(C)(C)c2csc(NC(=O)NCCF)n2)cc1 [Example A021, 1-(2-fluoroethyl)-3-(4-(2-(4-methoxyphenyl)propan-2-yl)thiazol-2-yl)urea]	1390	104	–
COc1ccc(C(C)(C)c2csc(NC(=O)NCc3ccc(NCCO)nc3)n2)cc1 [Example A022, 1-((6-((2-hydroxyethyl)amino)pyri-din-3-yl)methyl)-3-(4-(2-(4-methoxyphenyl)propan-2-yl)thiazol-2-yl)urea]	–	232	960
COc1ccc(C(C)(C)c2csc(NC(=O)NCc3ccc(N(C)CCO)nc3)n2)cc1 [Example A023, 1-((6-((2-hydroxyethyl)(methyl)a-mino)pyridin-3-yl)methyl)-3-(4-(2-(4-methoxyphenyl)propan-2-yl)thiazol-2-yl)urea]	1320	229	–
C#CC(C)(c1ccc(Cl)cc1)c1csc(NC(=O)NCCC#N)n1 (stereo not drawn) [Example A024, 1-(4-(2-(4-chlorophenyl)but-3-yn-2-yl)thiazol-2-yl)-3-(2-cyanoethyl)urea]	1250	13	–
CC(C)(c1ccc(C2CC2)cc1)c1csc(NC(=O)NCc2ccc(N3CCNCC3)cc2)n1 [Example A025, 1-(4-(2-(4-cyclopropylphenyl)propan-2-yl)thiazol-2-yl)-3-(4-(piperazin-1-yl)benzyl)urea]	8580	334	–
CC(C)(c1ccc(Br)cc1)c1csc(NC(=O)NCc2ccc(CN3CCNCC3)cc2)n1 [Example A026, 1-(4-(2-(4-bromophenyl)propan-2-yl)thiazol-2-yl)-3-(4-(piperazin-1-ylmethyl)benzyl)urea]	1250	117	–
